In PMC2954893, “MHC Class I Bound to an Immunodominant Theileria parva Epitope Demonstrates Unconventional Presentation to T Cell Receptors” (PLoS Pathogens, 2010):

Columns and labels:
N*01301 = assay: RMA-S MHC stabilization assay (peptide binding, pBL50); design: species or system cattle; conditions: RMA-S cells transfected with N*01301; peptides 0.1 nM to 1 mM; surface N*01301 detected with mAb IL-A88 by flow; reference peptide TIMPKDIQL
Description: A 9mer self-peptide (TIMPKDIQL) shown to have a high binding affinity to N*01301 was used throughout as a positive control in flow-based MHC stabilization assays (see Materials and Methods for details). In order to systematically explore the relative contribution to binding affinity made by amino acids at each position, a sequential alanine-scan of the self-peptide was made (Fig. 1A). Dose/FI curves were created for each peptide (using peptides at concentrations between 0.1 nM and 1 mM) and presented as semi-logarithmic plots as in previous studies ([25], supporting information (SI) Fig. S1). The high binders have low half-maximal binding level (BL50) values (high pBL50) and the low binders have high BL50 values (low pBL50). […]
RMA-S is a mouse lymphoma cell line with a deficiency in MHC class I antigen processing which has been used extensively to study binding of peptides to MHC class I [37]. […] Results are expressed as fluorescence index (FI) values. These were calculated as the test mean fluorescence intensity (MFI) minus the no-peptide isotype control MFI divided by the no-peptide N*01301-stained control MFI minus the no-peptide isotype control MFI. The half-maximal binding level (BL50), which is the peptide concentration yielding the half-maximal FI of the reference peptide in each assay, was calculated and presented as pBL50 (–logBL50). […]

responding T cells = conditions: T. parva-immune A18-homozygous animals; cited from earlier work
Source text: Several CD8^+ T cell epitopes in T. parva have been identified recently, [17], [18]. […] This allele is expressed alone on the haplotype designated A18, which is common in the British Friesian breed. Although this is not the only single gene class I MHC haplotype in cattle, it remains an unu ...

[1] = system: Tp1_214–224-specific CD8+ T cell clones; assay: 4-hour 111Indium release cytotoxicity assay with peptide-pulsed target cells; format: cell-based, cattle; conditions: 22 CD8+ T cell clones; example in Fig S6
Source text: Twenty-two Tp1_214–224-specific CD8^+ T cell clones, derived from 2 T. parva-immune animals (641 and 633), were examined for their ability to recognize a series of Ala-substituted versions of Tp1_214–224 (as detailed in Fig 1), using a cytotoxicity assay. All clones gave near maximal levels of killing of cells pulsed with the native peptide (ranging from 21% to 100% for different clones) down to a concentration of 10 pg/ml (example shown in Fig S6). The results obtained with the Ala-substituted peptides tested at 1 ng/ml (i.e. well above the minimal concentration required to obtain maximal killing), are summarized in Fig 5. The most striking finding was the abolition (or near abolition) of recognition by all T cell clones of 2 or more of the peptides substituted at positions 6–9. Based on major effects on recognition of peptides substituted at positions 6, 7 and 8, the 22 clones fell into 4 groups each with broadly similar specificity. Nine clones were profoundly influenced by residues 6 and 8, seven clones by residues 7 and 8, four clones by residue 7 and two clones by residue 8. […] Substitutions at positions 3 and 4 also had substantial effects on recognition by some clones.
Figure 5 Effects of single alanine substitutions in the Tp1_214–224 epitope on recognition by specific CD8^+ T cell clones. […]

Sequence | binding to N*01301 (pBL50 class) (N*01301) | share of responding T cells specific for the peptide (responding T cells) | peptide concentration down to which all clones gave near maximal killing [1]
TIMPKDIQL | high (for high binding >5 (BL50 <10^−5)) | – | –
VGYPKVKEEML [Tp1_214–224] | – | over 75% | 10 pg/mL
